Values quoted from earlier work, collected in patent US20060063794A1, “Method of attenuating graft rejection” (Fujisawa Pharmaceutical Co., Ltd., priority 2004, published 2006).

Assays:
[1] = MMF 2 g/day in addition to Tacrolimus and corticosteroid; cited from earlier work
[2] = system: rat cardiac allografts; settings: rats, 20 mg/kg for ten days; cited from earlier work

Row | SMILES | AR rate [1] [%] | Prolongation of graft survival [2]
1 | COc1c(C)c2c(c(O)c1C/C=C(\C)CCC(=O)OCCN1CCOCC1)C(=O)OC2 [MMF] | 7.1 | –
2 | N#Cc1ccc(NC(=O)C(C#N)C(=O)C2CC2)cc1 (centres unmarked) [MNA 279, reference compound] | – | about two
